Measurements: article PMC7956430, “Cytotoxicity and Apoptosis Effects of Curcumin Analogue (2E,6E)-2,6-Bis(2,3-Dimethoxybenzylidine) Cyclohexanone (DMCH) on Human Colon Cancer Cells HT29 and SW620 In Vitro” (Molecules, 2021)
Like-named read-outs stand apart in the source and are kept apart here.

Key:
Splenocyctes = assay: MTT cell viability assay on normal cells; assay type: cell-based; settings: splenocytes
HT29 [1] = assay: Annexin V/FITC assay (flow cytometry); assay type: cell-based, human; settings: HT29, 72 h, DMCH at IC50
Protocol: (§1) The apoptosis effect on HT29 and SW620 cells was studied using an Annexin V fluorescence kit (BD Pharmingen, San Diego, CA, USA) according to the manufacturer’s instructions without any modifications. Briefly, cells were seeded for 24 h at a density of 2.0 × 10^5 cells per well in a 6-well plate. Then, the seeded cells were treated with the designated concentrations for 48 h and 72 h. After the 48 h (or 72 h) of treatment, the treated cells were harvested and collected as a pellet. Next, the pellet was resuspended in 400 μL of binding buffer and stained with 5 μL of FITC-Annexin-V and 5 μL of PI provided in the kit. Afterward, the cells were analysed using a Novocyctes flow cytometer (ACEA Biosciences Inc., San Diego, CA, USA).

SW620 [2] = assay: Annexin V/FITC assay (flow cytometry); assay type: cell-based, human; settings: SW620, 72 h, DMCH at IC50
Protocol: as §1

HT29 [3] = assay: MTT cell viability assay; assay type: cell-based; settings: Homo sapiens, HT-29
Protocol: (§2) Both SW620 and HT29 cells were grown in an incubator at 37 °C under 5% CO2 condition with their respective media. After the cells were harvested, they were counted and seeded at 1 × 10^5 cells per well in a 96-well plate overnight before being treated with DMCH. The following day, cells were treated with various concentrations of DMCH. […] Following incubation for the designated time period, 20 μL of (5 mg/mL) MTT 3-[4, 5-dimethylthiazol-2-yl]-2, 5 diphenyltetrazolium bromide (Merck, Kenilworth, NJ, USA) reagent was added into each well and then cells were incubated again for another 3 to 4 h. Next, the solution was removed and 100 μL of dimethyl sulfoxide (DMSO) was added into the wells. Afterward, the plate was read at 575 nm using a microtiter plate reader (μQuant, Bio-Tek Instrument, Winooski, VT, USA). The results were analysed as the percentage proliferation of the cells regarding the concentration of the sample treated. The following formula was used to determine the percentage of viable cells:
(§3) Percentage of viability (%) = (Absorbance of sample at 570 nm)/(Absorbance of control at 570 nm) × 100.

SW620 [4] = assay: MTT cell viability assay; assay type: cell-based; settings: Homo sapiens, SW-620
Protocol: as §2, §3

HT29 [5] = assay: Acridine orange/propidium iodide (AO/PI) double staining assay; assay type: cell-based, human; settings: HT29, DMCH at IC50, as incubation time increased (48 h, 72 h), p < 0.05
Protocol: (§4) Acridine orange/propidium iodide (AO/PI) double staining assay was performed on colon cancer cell lines to determine the mode of cell death microscopically. HT29 and SW620 cell lines were seeded in a 6-well plate at a density of 2 × 10^5 cells/well. Then, cells were treated with DMCH sample according to 48 h and 72 h concentrations. The treatment-free culture was used as a negative control, and cells were detached and collected at the end of each incubation time. Then, cells were washed with PBS and incubated with a 1:1 ratio of acridine orange (10 µg/mL) and propidium iodide (10 µg/mL). An amount of 10 µL of incubated suspension cells was placed on a slide and viewed immediately under a fluorescent microscope (Nikon FC-35DX, Nikon, Tokyo, Japan).

SW620 [6] = assay: as above; assay type: cell-based, human; settings: SW620, DMCH at IC50, as incubation time increased (48 h, 72 h), p < 0.05
Protocol: as §4

[7] = test system: apoptosis-related proteins in SW620; assay: Human apoptosis proteome profiler; assay type: cell-based; settings: SW620, DMCH (IC50) for 48 h
Protocol: (§5) Colon cancer cell lines SW620 and HT29 that had been treated with DMCH for 48 h were investigated for the expression profiles of apoptosis-related proteins. This was conducted using the Human Apoptosis Array Kit (R&D Systems, Minneapolis, MN, USA). Firstly, the proteins from both cells were extracted using 600 µL of RIPA buffer (50 mM Tris-HCl, 150 mM NaCl, 1.0% TritonX-100, 0.5% sodium deoxycholate, 0.1% SDS) supplemented with 10 mg of pre-made protease inhibitor cocktails (Roche, Mississauga, ON, Canada). After that, the proteins were quantified using the Bradford assay (Sigma, St. Louis, MO, USA). Then, membranes were blocked by blocking buffer for an hour. At the same time, the proteins were prepared with the addition of 1 mL Lysis Buffer 17 to the protein lysate. The prepared protein was loaded onto the membrane and was incubated at 4 °C overnight. The following day, the membranes were washed three times with 20 mL of wash buffer provided in the kit. Next, the membrane was transferred into a 4-well multi-dish that contains the reconstituted detection antibody cocktails, and it was incubated for an hour on a shaker. Then, the membrane was again washed with a washing buffer three times. Two millilitres of Streptavidin-HRP was added onto the membrane followed by incubation for 30 min. Then, the membrane was washed three times. Afterward, the membrane was loaded with 1.0 mL of Chemi Reagent Mix and then the membrane was scanned using ChemiDoc XRS (Bio-Rad, Hercules, CA, USA).

[8] = test system: apoptosis-related proteins in HT29; assay: Human apoptosis proteome profiler; assay type: cell-based; settings: HT29, DMCH (IC50) for 48 h
Protocol: as §5

HT29 [9] = assay: Cell cycle analysis by flow cytometry; assay type: cell-based, human; settings: HT29, 72 h
Protocol: (§6) The effect of the DMCH sample on the cell cycle of HT29 and SW620 cells was investigated using flow cytometry cell cycle analysis. Cell cycle assay was carried out using the CycleTEST Plus DNA Reagent Kit according to the instructions (BD Pharmingen, San Diego, CA, USA). The cells were seeded at a density of 2.0 × 10^5 cells/well overnight. Then, cells were treated with different dosages of DMCH based on the concentration results of the MTT assay for 48 h and 72 h. After the treatment, cells were collected, and the pellet was resuspended in 200 μL of trypsin (solution A) and RNAse (solution B) for 10 min each followed by 250 μL of propidium iodide (solution C) for 15 min. After that, flow cytometric analysis was performed within 3 h using a Novocytes flow cytometer (ACEA Biosciences Inc., San Diego, CA, USA).

SW620 [10] = assay: Cell cycle analysis by flow cytometry; assay type: cell-based, human
Protocol: as §6

[11] = Splenocyte, 24 h, read-out: IC50
[12] = Splenocyte, 48 h, read-out: IC50
[13] = Splenocyte, 72 h, read-out: IC50

In the case of `COc1cccc(/C=C2\CCC/C(=C\c3cccc(OC)c3OC)C2=O)c1OC` [DMCH, (2E,6E)-2,6-bis(2,3-dimethoxybenzylidene) cyclohexanone], the IC50 (Splenocyctes; [11]) is reported as greater than 30 µM, the IC50 (Splenocyctes; [12]) is reported as greater than 30 µM and the IC50 (Splenocyctes; [13]) is reported as greater than 30 µM. The IC50 (Splenocyctes; 24 h) was “no IC50 values observed”, the IC50 (Splenocyctes; 48 h) was “no IC50 values observed” and the IC50 (Splenocyctes; 72 h) was “no IC50 values observed”. For the same molecule, the “early and late apoptotic/necrotic cells” value (HT29 [1]) was 8.83 ± 0.42%, the “early and late apoptotic/necrotic cells” value (SW620 [2]) was 15.70 ± 1.03% and the IC50 (HT29 [3]; HT29, 24 h, read-out: IC50) was greater than 30 µM. For the same molecule, the IC50 (HT29 [3]; HT29, 48 h, read-out: IC50) was 9.8 ± 0.553 µM, the IC50 (HT29 [3]; HT29, 72 h, read-out: IC50) was 8.2 ± 0.761 µM and the IC50 (HT29 [3]; HT29, as printed in abstract, time not stated, read-out: inhibitory concentration (IC50)) was 9.8 ± 0.55 µg/mL. It also gave an IC50 (SW620 [4]; SW620, 24 h, read-out: IC50) greater than 30 µM, an IC50 (SW620 [4]; SW620, 48 h, read-out: IC50) of 7.5 ± 1.19 µM and an IC50 (SW620 [4]; SW620, 72 h, read-out: IC50) of 5 ± 0.157 µM. The IC50 (SW620 [4]; SW620, as printed in abstract, time not stated, read-out: inhibitory concentration (IC50)) was 7.5 ± 1.19 µg/mL, the “proportion of cells that exhibited early apoptosis and late apoptosis” value (HT29 [5]) was “significantly higher” and the “proportion of cells that exhibited early apoptosis and late apoptosis” value (SW620 [6]) was “significantly higher”. For the same molecule, the “Bad Regulation” value [7] was “Up”, the “Bax Regulation” value [7] was “Up” and the “Bcl x Regulation” value [7] was “Up”. The “Cytochrome c Regulation” value [7] was “Down”, the “Livin Regulation” value [7] was “Down” and the “Pro caspase 3 Regulation” value [7] was “Down”. The “SMAC/Diablo Regulation” value [7] was “Down”, the “Cytochrome c Relative Intensity (Fold Change)” value ([7]; vs control) was −0.900 ± 0.006 and the “Livin Relative Intensity (Fold Change)” value ([7]; vs control) was −0.900 ± 0.040. The “SMAC/Diablo Relative Intensity (Fold Change)” value ([7]; vs control) was −0.900 ± 0.070, the “Bad Regulation” value [8] was “Up” and the “Bax Regulation” value [8] was “Up”. The “Bcl x Regulation” value [8] was “Down”, the “Cytochrome c Regulation” value [8] was “Up” and the “Livin Regulation” value [8] was “Down”. The “Pro caspase 3 Regulation” value [8] was “Up”, the “SMAC/Diablo Regulation” value [8] was “Up” and the “cells in sub-G0/G1 phase” value (HT29 [9]) was 10.96± 0.94%. For the same molecule, the “cells in sub-G0/G1 phase” value (SW620 [10]; SW620, 48 h) was 0.15 ± 0.05% and the “cells in sub-G0/G1 phase” value (SW620 [10]; SW620, 72 h) was 73.24 ± 1.65%.
With `COc1cc(/C=C/C(=O)CC(=O)/C=C/c2ccc(O)c(OC)c2)ccc1O` [curcumin] the IC50 (Splenocyctes; [11]) was greater than 30 µM, the IC50 (Splenocyctes; [12]) was greater than 30 µM and the IC50 (Splenocyctes; [13]) was greater than 30 µM. The IC50 (HT29 [3]; HT29, 24 h, read-out: IC50) was greater than 30 µM, the IC50 (HT29 [3]; HT29, 48 h, read-out: IC50) was 26.7 ± 1.53 µM and the IC50 (HT29 [3]; HT29, 72 h, read-out: IC50) was 20.7 ± 1.16 µM. It also gave an IC50 (SW620 [4]; SW620, 24 h, read-out: IC50) greater than 30 µM, an IC50 (SW620 [4]; SW620, 48 h, read-out: IC50) of 18.6 ± 0.321 µM and an IC50 (SW620 [4]; SW620, 72 h, read-out: IC50) of 15.7 ± 1.52 µM.
